# In US12594267B2, “Capsid inhibitors for the treatment of HIV” (Gilead Sciences, Inc., priority 2018, dated 2026):
# Read-outs that look alike come from different tables or passages of the source.
# Key:
# WT HXB2D = assay: Cytopathic antiviral assay in MT-2 cells, wild type HXB2D; assay type: cell-based, HIV-1; details: mean ± s.d. of three experiments in triplicate
# Method: (§1) The antiviral activity of the compound of Formula (a) was tested against a panel of known HIV-1 mutants resistant to HIV PIs (ATV and DRV), NRTIs (TFV and FTC), NNRTIs (RPV and EFV) or INSTIs (RAL, EVG and DTG) using a cytopathic antiviral assay in MT-2 cells. The compound of Formula (Ia) was fully active against all tested mutants resistant to PIs (Table 11), NRTIs (Table 12), NNRTIs (Table 13) or INSTIs (Table 14).
# [1] = PK after oral administration of spray-dried dispersion (SDD) tablets in dogs; assay type: in vivo; details: beagle dogs, 300 mg fixed dose
# Method: A tablet, prepared from a spray-dried dispersion of a sodium salt of the compound of Formula (Ia), was prepared in a composition shown in Table T below (with an outer film coating made of Opadry® II White 85F18422, wherein the outer film coating provides a 3% weight gain based on the uncoated tablet) and was administered orally at 300 mg fixed dose to 6 beagle dogs (Table U) and the pharmacokinetic (PK) profile was determined. […] Plasma concentrations of the compound of Formula (Ia) were maintained above the target trough concentration of 20 nM for at least 14 days (2 weeks).
# HIV-2 isolates = assay: Antiviral activity against HIV-2 isolates in PHA-stimulated human PBMCs; assay type: cell-based; details: Human immunodeficiency virus 2, PBMC, 168 h, 7-day infection, RT activity readout, mean of triplicate
# Method: The antiretroviral activity of the compound of Formula (Ia) was tested against a panel of 22 HIV-1 clinical isolates of HIV-1 and two HIV-2 isolates in freshly isolated, PHA-stimulated human peripheral blood mononuclear cells (PBMCs). The HIV-1 isolates included representative strains from subtypes A, B, C, D, E, F, G, N, O, AE, and AG. Following a 7-day infection, virus production was determined by measuring reverse transcriptase activity in cell-free culture supernatants.
# [2] = Plasma PK after single oral administration in solution, rat; assay type: in vivo, Sprague-Dawley Rat
# Method: An oral formulation containing a compound of Formula (Ia) in […], 20% propylene glycol, 45 PEG 300, and 30% 0.01 N HCl was prepared. The formulation was orally administered to male rat, dog, cynomolgus monkey, and rhesus monkey according to the doses shown in Table 8 below.
# NRTI-resistant viruses = assay type: cell-based, HIV-1; details: MT-2 cells; for EC50 Fold-Change: Mutant/WT (LAI) EC50 ratio, mean ± s.d. of three experiments
# Method: The antiviral activity of the compound of Formula (a) was tested against a panel of known HIV-1 mutants resistant to HIV PIs (ATV and DRV), NRTIs (TFV and FTC), NNRTIs (RPV and EFV) or INSTIs (RAL, EVG and DTG) using a cytopathic antiviral assay in MT-2 cells.
# INSTI-resistant viruses = assay: Cytopathic antiviral assay in MT-2 cells, INSTI-resistant viruses; assay type: cell-based, HIV-1; details: for EC50 Fold-Change: Mutant/WT (HXB2D) EC50 ratio, mean ± s.d. of three experiments
# Method: as §1
# PI-resistant viruses = assay: Cytopathic antiviral assay in MT-2 cells, PI-resistant viruses; assay type: cell-based, HIV-1; details: Mutant/WT (HXB2D) EC50 ratio, mean ± s.d. of three experiments
# Method: as §1
# [3] = dog, plasma, oral SDD tablet of the sodium salt (Table T composition, Opadry II White film coat), mean ± SD, n=6
# [4] = male, Sprague-Dawley, plasma, rat, single oral 5.0 mg/kg, solution in 5% ethanol/20% propylene glycol/45% PEG 300/30% 0.01 N HCl, mean ± SD, n=3
structure (smiles),measurement,setting,value
"CC(C)(C#Cc1ccc(-c2ccc(Cl)c3c(NS(C)(=O)=O)nn(CC(F)(F)F)c23)c([C@H](Cc2cc(F)cc(F)c2)NC(=O)Cn2nc(C(F)(F)F)c3c2C(F)(F)[C@@H]2C[C@H]32)n1)S(C)(=O)=O [Formula (Ia), N—((S)-1-(3-(4-chloro-3-(methylsulfonamido)-1-(2,2,2-trifluoroethyl)-1H-indazol-7-yl)-6-(3-methyl-3-(methylsulfonyl)but-1-yn-1-yl)pyridin-2-yl)-2-(3,5-difluorophenyl)ethyl)-2-((3bS,4aR)-5,5-difluoro-3-(trifluoromethyl)-3b,4,4a,5-tetrahydro-1H-cyclopropa[3,4]cyclopenta[1,2-c]pyrazol-1-yl)acetamide]",EC50,"WT HXB2D; Human immunodeficiency virus 1, MT2, read-out: WT HXB2D EC50, MT-2 cells, INSTI-resistance panel (Table 14)",130 ± 30 pM
same,EC50,"WT HXB2D; Human immunodeficiency virus 1, MT2, read-out: WT HXB2D EC50, MT-2 cells, NNRTI-resistance panel (Table 13)",180 ± 20 pM
same,EC50,"WT HXB2D; MT-2 cells, PI-resistance panel (Table 11), read-out: WT HXB2D EC50",240 ± 140 pM
same,Time plasma concentrations maintained above the target trough concentration of 20 nM,[1]; oral SDD tablet of the sodium salt,at least 14 days
same,AUC(0-inf),[1]; [3],18.5 ± 11.1 µM·h
same,Cmax,[1]; [3],718 ± 409 nM
same,Tmax,[1]; [3],5.3 ± 3.3 h
same,AUC(0-t),"[1]; dog, plasma, oral SDD tablet of the sodium salt (Table T composition, Opadry II White film coat), mean ± SD, n=6, read-out: AUC0-72h",15.8 ± 10 µM·h
same,concentration at 72 h,"[1]; dog, plasma, oral SDD tablet of the sodium salt (Table T composition, Opadry II White film coat), mean ± SD, n=6, read-out: C72h",61.4 ± 30 nM
same,EC50,HIV-2 isolates; HIV-2 isolate CBL-20,570 pM
same,EC50,HIV-2 isolates; HIV-2 isolate CDC310319,1020 pM
same,bioavailability,"[2]; male, Sprague-Dawley, plasma, rat, single oral 5.0 mg/kg, same solution, calculated based on AUC0-72h, mean ± SD, n=3, read-out: F (oral bioavailability)",21.7 ± 8.9%
same,AUC(0-inf),[2]; [4],25200 ± 10200 µM·h
same,Cmax,[2]; [4],336000 ± 116000 nM
same,Tmax,[2]; [4],10 ± 3.5 h
same,AUC(0-t),"[2]; male, Sprague-Dawley, plasma, rat, single oral 5.0 mg/kg, solution in 5% ethanol/20% propylene glycol/45% PEG 300/30% 0.01 N HCl, mean ± SD, n=3, read-out: AUC0-72h",13500 ± 3930 µM·h
same,"F % (bioavailability), in words","[2]; rats, oral solution",moderate
same,EC50 Fold-Change,NRTI-resistant viruses; 6TAMs,0.4 ± 0.2
same,EC50 Fold-Change,NRTI-resistant viruses; K65R,0.7 ± 0.2
same,EC50 Fold-Change,NRTI-resistant viruses; M184V,0.5 ± 0.3
same,"activity against all tested mutants, in words",NRTI-resistant viruses; mutants resistant to NRTIs,fully active
same,EC50 Fold-Change,INSTI-resistant viruses; E92Q/N155H,0.9 ± 0.4
same,EC50 Fold-Change,INSTI-resistant viruses; E138K/Q148K,0.7 ± 0.3
same,EC50 Fold-Change,INSTI-resistant viruses; G140S/Q148R,0.8 ± 0.3
same,EC50 Fold-Change,INSTI-resistant viruses; N155H/Q148R,1.3 ± 0.7
same,EC50 Fold-Change,INSTI-resistant viruses; R263K/M50I,0.9 ± 0.5
same,EC50 Fold-Change,INSTI-resistant viruses; Y143R,0.5 ± 0.1
same,"activity against all tested mutants, in words",INSTI-resistant viruses; mutants resistant to INSTIs,fully active
same,EC50 Fold-Change,PI-resistant viruses; G48V/V82A/L90M,0.4 ± 0.2
same,EC50 Fold-Change,PI-resistant viruses; G48V/V82S,0.4 ± 0.1
same,EC50 Fold-Change,PI-resistant viruses; I50V,0.6 ± 0.2
same,EC50 Fold-Change,PI-resistant viruses; I84V/L90M,0.3 ± 0.1
